In data set [1] the target is Pgp ATPase (Cricetulus griseus, UniProt P21448). Kind of data set: Pgp ATPase activity. It is filed as biochemical. The conditions noted are these: over the range 0.3-0.5 M.
Data set [2] deals with T1, P-glycoprotein (Pgp) purified from MDR CH^RB30 Chinese hamster ovary cells (Cricetulus griseus, UniProt P21448). Kind of data set: Quenching of intrinsic Trp fluorescence of purified Pgp by nucleotides, drugs and peptides. The conditions noted are these: maximal Trp quenching. As for the experimental part:
(§1) Purification of Pgp. Pgp was purified from plasma membrane of MDR CH^RB30 cells by a modification of the method previously described for CH^RC5 (27). […] Contaminating glycoproteins were removed from the S2 fraction by passing through a concanavalinA-Sepharose 4B column (Pharmacia) equilibrated with 2 mM CHAPS buffer. […] The Pgp preparation was kept on ice and used within 24 h.
(§2) Steady-state Fluorescence Measurements. Steady-state fluorescence measurements were performed using a Spex Model DM3000 spectrofluorimeter (Spex Industries Inc., Edison, N.J.) at 22° C., with excitation and emission bandpass set to 4 nm. Most fluorescence studies were carried out on solutions of 100 μg/mL Pgp in 2 mM CHAPS buffer, in the presence of 0.5 mg/mL of the phospholipid PMPC (Avanti Polar Lipids, Alabaster, Ala.). PMPC was added as extruded 100 nm unilamellar vesicles (8). With some drugs, the use of a lipid was not required for the fluorescence measurements. The excitation and emission spectra were the average of three scans, and were corrected by subtracting control scans with the same phospholipid buffer in the absence of protein.
(§3) Quenching Studies using TNP-Nucleotide Derivatives and Drugs. […] Working solutions of TNP-derivatives, and non-peptide drugs and modulators were also prepared in 2 mM CHAPS with 0.5 mg/mL PMPC vesicles, whereas peptide-based drugs and modulators were dissolved in dimethylsulfoxide (DMSO). […] Quenching experiments were performed by successively adding 5 μL aliquots of TNP-derivatives or drug solution to 500 μL of Pgp solution in a 0.5 cm quartz cuvette. After each addition, the sample was excited at 290 nm and the steady-state fluorescence emission was measured at 330 nm. Fluorescence intensities were corrected for dilution, scattering, and the inner filter effect as described elsewhere (8). Control titrations were performed with 30 μM NATA to assess the non-specific quenching of Trp fluorescence by TNP-nucleotide derivatives and drugs.
(§4) The experimental quenching data were computer-fitted to the following equation as described previously (8)(9): [formula]
(§5) where (ΔF/F0 100) is the percent quenching (percent change in fluorescence relative to the initial value), following addition of substrate at a concentration [S], and Kd is the dissociation constant. Fitting was carried out using nonlinear regression with the Marquardt-Levenberg algorithm (SigmaPlot, SPSS Inc., Chicago, Ill.), and values of Kd and (ΔFmax/F0 100) were extracted. For biphasic titration curves, each section of the binding curve was fitted to the above equation separately, as described previously (32).

The target of data set [3] is P-glycoprotein (Pgp) (Cricetulus griseus, UniProt P21448). Kind of data set: in vitro. The conditions noted are these: Chinese hamster, Kd2. The procedure: as §1, §2, §3, §4, §5
Data set [4] concerns the target T1, P-glycoprotein (Pgp) purified from MDR CH^RB30 Chinese hamster ovary cells. Kind of data set: Trp fluorescence lifetime of purified Pgp in presence of nucleotides and drugs. The conditions noted are these: Pgp Trp decay, concentration of substance. Details: Pgp was purified from plasma membrane of MDR CH^RB30 cells; endogenous in cells; host or cells: MDR CH^RB30 Chinese hamster ovary cells (plasma membrane, CHAPS extraction, concanavalin A-Sepharose pass-through). As for the experimental part:
as §1
Fluorescence Lifetime Measurements. Fluorescence decays were measured with a PTI Model C-720 fluorescence lifetime instrument ((28), Photon Technology International Inc., Lawrenceville, N.J.) utilizing a proprietary stroboscopic detection technique (29). […] Fluorescence decays were analyzed with a PTI TimeMaster Pro analysis package using a discrete 1- to 4- exponential fit, 1- to 4-exponential global analysis, or lifetime distribution analysis by the Exponential Series Method (ESM) (30). The quality of fits was judged by chi-square values and weighed residuals.

Broadly, the Kd is the equilibrium constant for the complex coming apart.

T1 sequence (P21448 whole entry): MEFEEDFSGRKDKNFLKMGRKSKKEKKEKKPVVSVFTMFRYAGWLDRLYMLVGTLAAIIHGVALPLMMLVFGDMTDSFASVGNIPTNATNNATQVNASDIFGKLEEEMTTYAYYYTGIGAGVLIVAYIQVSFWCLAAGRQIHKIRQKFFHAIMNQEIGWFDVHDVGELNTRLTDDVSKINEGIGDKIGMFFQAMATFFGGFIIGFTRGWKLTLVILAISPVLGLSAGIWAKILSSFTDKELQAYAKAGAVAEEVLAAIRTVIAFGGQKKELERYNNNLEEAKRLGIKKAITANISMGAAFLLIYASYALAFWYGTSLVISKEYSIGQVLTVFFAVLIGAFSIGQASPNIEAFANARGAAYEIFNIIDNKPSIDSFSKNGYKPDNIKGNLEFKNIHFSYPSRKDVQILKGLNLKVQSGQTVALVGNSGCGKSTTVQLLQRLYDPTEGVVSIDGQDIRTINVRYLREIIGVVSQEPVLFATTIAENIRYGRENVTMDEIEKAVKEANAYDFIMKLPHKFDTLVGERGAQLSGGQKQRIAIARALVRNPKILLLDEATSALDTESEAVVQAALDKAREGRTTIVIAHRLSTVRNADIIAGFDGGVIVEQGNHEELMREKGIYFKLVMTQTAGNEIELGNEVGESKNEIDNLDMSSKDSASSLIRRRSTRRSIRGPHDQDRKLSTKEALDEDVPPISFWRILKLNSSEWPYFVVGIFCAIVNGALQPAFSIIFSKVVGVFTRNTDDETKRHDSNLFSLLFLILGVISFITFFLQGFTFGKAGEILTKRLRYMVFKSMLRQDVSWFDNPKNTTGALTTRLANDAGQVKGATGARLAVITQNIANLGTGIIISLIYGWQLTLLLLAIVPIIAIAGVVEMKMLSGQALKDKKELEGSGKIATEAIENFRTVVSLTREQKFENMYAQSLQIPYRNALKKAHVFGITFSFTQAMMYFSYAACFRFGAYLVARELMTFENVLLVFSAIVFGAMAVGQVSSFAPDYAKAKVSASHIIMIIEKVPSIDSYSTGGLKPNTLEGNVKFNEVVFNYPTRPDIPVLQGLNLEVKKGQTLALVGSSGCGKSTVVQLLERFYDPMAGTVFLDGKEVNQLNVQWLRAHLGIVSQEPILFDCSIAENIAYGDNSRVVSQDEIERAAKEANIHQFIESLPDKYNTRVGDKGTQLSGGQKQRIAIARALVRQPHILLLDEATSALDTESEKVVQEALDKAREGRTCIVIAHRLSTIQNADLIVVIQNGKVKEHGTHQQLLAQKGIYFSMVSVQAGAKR
Sequence of P-glycoprotein (Pgp) (P21448 whole entry): as above
Sequence of Pgp ATPase (P21448 whole entry): as above

For `C=CC(N)=O` [acrylamide], the “decline in catalytic activity (ATP hydrolysis by Pgp)” value in data set [1] is roughly 20%.

With `CN1CCN(CCCN2c3ccccc3Sc3ccc(C(F)(F)F)cc32)CC1` [trifluoperazine], the ΔFmax2 in data set [2] (lower affinity component) was determined as 67.7 ± 4.1%. The compound also showed a ΔFmax1 in data set [2] (single or higher affinity component) of 18.9 ± 0.87%. The compound also registered a Kd in data set [3] of 16.8 ± 1.6 µM. Also, in data set [4], the “<tav> (amplitude average lifetime)” value was determined as 2.15 ns, the “a1 (pre-exponential value)” value is recorded as 0.72, the “a2 (pre-exponential value)” value is reported as 0.35 and the “t1 (fluorescence lifetime)” value is given as 1.1 ns. In data set [4], the “t2 (fluorescence lifetime)” value is 4.3 ns.

For the origin of these results see patent US20040029100A1, “Rapid screen to identify p-glycoprotein substrates and high affinity modulators” (priority 2000, published 2004).
